# According to US20250188110A1, “SPECIFIC SMALL MOLECULE INHIBITORS THAT BLOCK KMT9 METHYLTRANSFERASE ACTIVITY AND FUNCTION” (ALBERT-LUDWIGS-UNIVERSITÄT FREIBURG, priority 2021, published 2025):
# Assays:
# KMT9 [1] = biological target: T1, KMT9 (Homo sapiens, UniProt Q9Y5N5); experiment: KMT9 thermal shift assay (SyproOrange); type: binding; conditions: ΔTm; 500 µM compound, 2 μM KMT9, 5X SO; read-out: Thermal shift
# T1 sequence (Q9Y5N5 1-214): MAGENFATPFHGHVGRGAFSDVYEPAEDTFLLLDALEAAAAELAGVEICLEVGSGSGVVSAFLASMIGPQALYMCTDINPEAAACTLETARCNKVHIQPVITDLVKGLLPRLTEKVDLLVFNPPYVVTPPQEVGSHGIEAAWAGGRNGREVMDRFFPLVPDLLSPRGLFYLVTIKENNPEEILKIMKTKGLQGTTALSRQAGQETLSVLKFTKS
# T1 sequence (Q9UI30 1-120 isoform Q9UI30-2 partner): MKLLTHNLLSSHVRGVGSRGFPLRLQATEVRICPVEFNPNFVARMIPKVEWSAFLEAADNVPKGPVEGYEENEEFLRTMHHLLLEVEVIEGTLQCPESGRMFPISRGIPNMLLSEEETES
# Method in brief: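 ΔTm versus DMSO-only control is reported in bins (>20 K, 15–20 K, 10–15 K, ≤10 K), using Tm from Boltzmann sigmoidal fits of SyproOrange melt curves. KMT9 with compound in pH 8.5 BTP buffer containing MgCl2 and DTT was preincubated at 25° C, then ramped 1° C per 15 s up to 95° C.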
# KMT9 [2] = biological target: T1, KMT9; experiment: Microscale thermophoresis (MST) KMT9 binding; conditions: microscale thermophoresis, His-tag labelled KMT9 (20 nM); read-out: MST
# Method in brief: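 Kd from microscale thermophoresis: compound series against 20 nM His-KMT9 labelled via RED-Tris-NTA, buffer 25 mM HEPES (pH 7.5)/100 mM NaCl/1 mM DTT/0.05% Tween, 40% MST power, 100% LED. Reported as classes: A ≤10 nM, B >10–100 nM, C >100–1000 nM, D >1000 nM.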
# KMT9 [3] = biological target: T1, KMT9; experiment: KMT9 methyltransferase inhibition assay, 3H-SAM scintillation (entries 1-154); type: biochemical; conditions: entries 1-154: 3H-SAM assay, 25 nM KMT9, 5 μM ETF1
# Method in brief: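 Tritium transfer from SAM (0.3 μM 3H-SAM, 0.7 μM unlabelled, final) to 5 μM ETF1 fragment by 25 nM KMT9 was measured after 2 h at 30° C, pH 8.5. Precipitated peptide was collected on filters and scintillation counted; IC50 came from a four-parameter fit of inhibition normalised to controls.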
ΔTm at 500 µM (KMT9 [1]) [°C],Kd (KMT9 [2]) [nM],IC50 (KMT9 [3]) [nM],SMILES
≤ 10,> 1000,> 10000,"CNc1ncnc2c1ccn2[C@@H]1C[C@H](/C=C/CCNCCc2ccccc2)[C@@H](O)[C@H]1O [422 (293), (1R,2S,3R,5R)-3-(4-(methylamino)-7H-pyrrolo[2,3-d]pyrimidin-7-yl)-5-((E)-4-(phenethylamino)but-1-en-1-yl) cyclopentane-1,2-diol]"
15 to 20,10 to 100,100 to 1000,"Nc1ncnc2c1c(Br)cn2[C@@H]1C[C@H](CNCCCNCCc2ccccc2F)[C@@H](O)[C@H]1O [338 (242), (1R,2S,3R,5R)-3-(4-amino-5-bromo-7H-pyrrolo[2,3-d]pyrimidin-7-yl)-5-(((3-((2-fluorophenethyl)amino)propyl)amino)methyl) cyclopentane-1,2-diol]"
10 to 15,100 to 1000,1000 to 10000,"CNc1ncnc2c1ccn2[C@@H]1C[C@H](CN(CCCNCCc2ccccc2)c2cn[nH]c2)[C@@H](O)[C@H]1O [442 (314), (1R,2S,3R,5R)-3-(4-(Methylamino)-7H-pyrrolo[2,3-d]pyrimidin-7-yl)-5-(((3-(phenethylamino)propyl)(1H-pyrazol-4-yl)amino)methyl) cyclopentane-1,2-diol]"
15 to 20,10 to 100,100 to 1000,"Nc1ncnc2c1c(-c1nc(Cc3ccccc3)cs1)cn2[C@@H]1C[C@H](CNCCCNCCc2ccccc2)[C@@H](O)[C@H]1O [Compound 605, (1R,2S,3R,5R)-3-(4-Amino-5-(4-benzylthiazol-2-yl)-7H-pyrrolo[2,3-d]pyrimidin-7-yl)-5-(((3-(phenethylamino)propyl)amino)methyl)cyclopentane-1,2-diol]"
15 to 20,10 to 100,100 to 1000,"Nc1ncnc2c1c(-c1nccs1)cn2[C@@H]1C[C@H](CNCCCNCCc2ccc(F)cc2)[C@@H](O)[C@H]1O [Compound 602, (1R,2S,3R,5R)-3-[4-Amino-5-(1,3-thiazol-2-yl)pyrrolo[2,3-d]pyrimidin-7-yl]-5-{[(3-{[2-(4-fluorophenyl)ethyl]amino}propyl)amino]methyl}cyclopentane-1,2-diol]"
≤ 10,> 1000,1000 to 10000,"CN1CCC(c2cn([C@@H]3C[C@H](CNCCCNCCc4ccccc4)[C@@H](O)[C@H]3O)c3ncnc(N)c23)CC1 [480 (354), (1R,2S,3R,5R)-3-(4-Amino-5-(1-methylpiperidin-4-yl)-7H-pyrrolo[2,3-d]pyrimidin-7-yl)-5-(((3-(phenethylamino)propyl)amino)methyl) cyclopentane-1,2-diol]"
≤ 10,> 1000,1000 to 10000,"CNc1ncnc2c1ccn2[C@@H]1C[C@H](CSCCCNCCc2ccccc2)[C@@H](O)[C@H]1O [427 (299), (1R,2S,3R,5S)-3-(4-(methylamino)-7H-pyrrolo[2,3-d]pyrimidin-7-yl)-5-(((3-(phenethylamino)propyl)thio)methyl) cyclopentane-1,2-diol]"
≤ 10,> 1000,> 10000,"CNC(=O)[C@H]1C[C@@H](n2cc3c4c(ncnc42)NCCC3)[C@H](O)[C@@H]1O [Compound 624, (1S,2R,3S,4R)-2,3-Dihydroxy-N-methyl-4-(6,7,8,9-tetrahydro-2H-2,3,5,6-tetraazabenzo[cd]azulen-2-yl)cyclopentane-1-carboxamide]"
10 to 15,100 to 1000,1000 to 10000,"Cc1cn([C@@H]2C[C@H](CNCCCNCCc3ccccc3)[C@@H](O)[C@H]2O)c2ncnc(N)c12 [467 (341), (1R,2S,3R,5R)-3-(4-Amino-5-methyl-7H-pyrrolo[2,3-d]pyrimidin-7-yl)-5-(((3-(phenethylamino)propyl)amino)methyl) cyclopentane-1,2-diol]"
≤ 10,100 to 1000,> 10000,"Nc1ncnc2c1ncn2[C@@H]1O[C@H](CNCCCNCc2ccc(OCc3ccccc3)cc2)[C@@H](O)[C@H]1O [321 (224), (2R,3R,4S,5R)-2-(6-amino-9H-purin-9-yl)-5-(((3-((4-(benzyloxy)benzyl)amino)propyl)amino)methyl)tetrahydrofuran-3 4-diol]"
≤ 10,> 1000,> 10000,"NC[C@H]1C[C@@H](n2cc3c4c(ncnc42)NCCCC3)[C@H](O)[C@@H]1O [Compound 630, (1S,2R,3R,5R)-3-(Aminomethyl)-5-(7,8,9,10-tetrahydro-2,3,5,6-tetraazacycloocta [cd]inden-2 (6H)-yl)cyclopentane-1,2-diol]"
≤ 10,> 1000,> 10000,"CNc1ncnc2c1ccn2[C@@H]1C[C@H](CS(=O)(=O)CCCNCCc2ccccc2)[C@@H](O)[C@H]1O [429 (301), (1R,2S,3R,5S)-3-(4-(Methylamino)-7H-pyrrolo[2,3-d]pyrimidin-7-yl)-5-(((3-(phenethylamino)propyl)sulfonyl)methyl) cyclopentane-1,2-diol]"
15 to 20,10 to 100,1000 to 10000,"Cn1cc(-c2cn([C@@H]3C[C@H](CNCCCNCCc4ccccc4)[C@@H](O)[C@H]3O)c3ncnc(N)c23)cn1 [478 (352), (1R,2S,3R,5R)-3-(4-Amino-5-(1-methyl-1H-pyrazol-4-yl)-7H-pyrrolo[2,3-d]pyrimidin-7-yl)-5-(((3-(phenethylamino)propyl)amino)methyl) cyclopentane-1,2-diol]"
10 to 15,> 1000,> 10000,"Nc1ncnc2c1c(Br)cn2[C@@H]1C[C@H](CNC[C@@H]2CCCNC2)[C@@H](O)[C@H]1O [456 (328), (1R,2S,3R,5R)-3-(4-Amino-5-bromo-7H-pyrrolo[2,3-d]pyrimidin-7-yl)-5-(((((R)-piperidin-3-yl)methyl)amino)methyl) cyclopentane-1,2-diol]"
≤ 10,> 1000,> 10000,"CCc1cn([C@@H]2C[C@H](CNCCCNCCc3ccccc3)[C@@H](O)[C@H]2O)c2ncnc(C)c12 [Compound 611, (1R,2S,3R,5R)-3-(5-ethyl-4-methyl-7H-pyrrolo[2,3-d]pyrimidin-7-yl)-5-(((3-(phenethylamino)propyl)amino)methyl)cyclopentane-1,2-diol]"
≤ 10,100 to 1000,> 10000,"O=C1CCc2cn([C@@H]3C[C@H](CNCCCNCCc4ccccc4)[C@@H](O)[C@H]3O)c3ncnc(c23)N1 [Compound 627, 2-((1R,2S,3R,4R)-2,3-dihydroxy-4-(((3-(phenethylamino)propyl)amino)methyl)cyclopentyl)-2,6,8,9-tetrahydro-7H-2,3,5,6-tetraazabenzo[cd]azulen-7-one]"
≤ 10,> 1000,> 10000,"CNc1ncnc2c1c(Br)cn2[C@@H]1C[C@H](CNCCCNCCc2cccc(Oc3ccccc3)c2)[C@@H](O)[C@H]1O [458 (330), (1R,2S,3R,5R)-3-(5-Bromo-4-(methylamino)-7H-pyrrolo[2,3-d]pyrimidin-7-yl)-5-(((3-((3-phenoxyphenethyl)amino)propyl)amino)methyl) cyclopentane-1,2-diol]"
10 to 15,100 to 1000,1000 to 10000,CNc1ncnc2c1ccn2[C@@H]1C[C@H](CNCCCNCCc2cccc(Oc3ccccc3)c2)[C@@H](O)[C@H]1O [287 (184)]
≤ 10,> 1000,> 10000,"CNc1ncnc2c1c(C)cn2[C@@H]1O[C@H](CNCCCNCCc2ccccc2)[C@@H](O)[C@H]1O [311 (210), (2R,3R,45,5R)-2-(5-methyl-4-(methylamino)-7//-pyrrolo[2,3-a]pyrimidin-7-yl)-5-(((3-(phenethylamino)propyl)amino)methyl)tetrahydrofuran-3,4-diol]"
≤ 10,> 1000,> 10000,"CNc1ncnc2c1ccn2[C@@H]1C[C@H](CN(CCCNCCc2cccc(Oc3ccccc3)c2)NC)[C@@H](O)[C@H]1O [367 (271), (1S,2R,3R,5R)-3-((2-methyl-1-(3-((3-phenoxyphenethyl)amino)propyl) hydrazineyl)methyl)-5-(4-(methylamino)-7H-pyrrolo[2,3-d]pyrimidin-7-yl) cyclopentane-1,2-diol]"
≤ 10,> 1000,> 10000,"CNc1ncnc2c1ccn2[C@@H]1C[C@H](CN(C[C@H]2CCCNC2)c2cncs2)[C@@H](O)[C@H]1O [438 (310), (1R,2S,3R,5R)-3-[4-(Methylamino)pyrrolo[2,3-d]pyrimidin-7-yl]-5-({[(3S)-piperidin-3-ylmethyl](1,3-thiazol-5-yl)amino}methyl) cyclopentane-1,2-diol]"
